This note sets out measurements from patent publication US20030109418A1, “Methods for identifying compounds for inhibition of neoplastic lesions, and pharmaceutical compositions containing such compounds” (priority 1999, published 2003).

For assay [1], the target named is T1, PDE peak A (PDE5) from SW480 cells (Homo sapiens, UniProt O76074).
T1 construct: endogenous in cells; host or cells: SW480 colon cancer cells, DEAE-Trisacryl M fraction
The assay can be described thus: cGMP hydrolysis inhibition, PDE peak A from SW480. It is filed as biochemical. As to conditions: cGMP hydrolysis, 0.25 μM 3H-cGMP.

The target of assay [2] is T2, purified cyclooxygenase (Type 1, COX-I) from ram seminal vesicles (Ovis aries, UniProt P05979).
T2 construct: using purified cyclooxygenase from ram seminal vesicles as described previously; tissue Cayman Chemical, Ann Arbor, Mich; (named in the general protocol only); host or cells: ram seminal vesicles
T2 sequence (P05979 25-600): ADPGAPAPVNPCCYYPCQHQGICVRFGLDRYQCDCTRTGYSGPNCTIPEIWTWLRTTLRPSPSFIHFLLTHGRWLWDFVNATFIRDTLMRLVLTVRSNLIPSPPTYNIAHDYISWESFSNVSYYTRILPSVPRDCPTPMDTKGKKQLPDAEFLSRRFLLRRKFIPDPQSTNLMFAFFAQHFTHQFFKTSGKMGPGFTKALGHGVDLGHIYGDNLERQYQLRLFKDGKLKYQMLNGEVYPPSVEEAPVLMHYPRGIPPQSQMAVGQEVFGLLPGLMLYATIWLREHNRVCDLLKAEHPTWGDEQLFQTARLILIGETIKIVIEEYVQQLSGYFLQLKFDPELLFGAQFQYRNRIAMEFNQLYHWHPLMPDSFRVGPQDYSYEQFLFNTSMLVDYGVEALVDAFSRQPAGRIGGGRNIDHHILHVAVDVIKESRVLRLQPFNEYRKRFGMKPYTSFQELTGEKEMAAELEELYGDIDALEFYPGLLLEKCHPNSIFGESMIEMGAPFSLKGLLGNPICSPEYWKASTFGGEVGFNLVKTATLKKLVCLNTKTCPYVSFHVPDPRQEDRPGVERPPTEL
Nature of the assay: COX inhibition assay, purified cyclooxygenase. It is filed as biochemical.

Assay [3] concerns cGMP PDE purified from human colon HT-29 cultured tumor cells. The assay can be described thus: cGMP PDE inhibition assay. The format is biochemical.
Assay [4] relates to PDE4 purified from human colon HT-29 cultured tumor cells. Nature of the assay: PDE4 inhibition assay. The note with it: HT-29 cell enzyme. It is filed as biochemical.
For assay [5], the system named is cGMP and cAMP levels in HT-29 cells. The assay can be described thus: Cyclic nucleotide levels in cultured cells by radioimmunoassay. The format is cell-based, human. As to conditions: HT-29 cells treated 30 minutes.
The subject of assay [6] is HT-29 colon adenocarcinoma cells. Nature of the assay: Apoptosis by DNA fragmentation assay in HT-29. Note: key: −: Not active; +: Slightly active; ++: Moderately active; +++: Strongly active; ++++: Highly active. It is filed as cell-based, human. As to conditions: qualitative activity profile.
A further assay relates to HCT116, Colon. Nature of the assay: Growth inhibition, SRB assay, HCT116. It is filed as cell-based. An excerpt: (§1) A compound's ability to inhibit tumor cell growth can be measured using the HT-29 human colon carcinoma cell line obtained from ATCC. HT-29 cells have previously been characterized as a relevant colon tumor cell culture model (Fogh, J., and Trempe, G. In: Human Tumor Cells in Vitro, J. Fogh (eds.), Plenum Press, New York, pp. 115-159, 1975). HT-29 cells are maintained in RPMI media supplemented with 5% fetal bovine calf serum (Gemini Bioproducts, Inc., Carlsbad, Calif.) and 2 mm glutamine, and 1% antibiotic-antimycotic in a humidified atmosphere of 95% air and 5% CO2 at 37° C. Briefly, HT-29 cells are plated at a density of 500 cells/well in 96 well microtiter plates and incubated for 24 hours at 37° C. prior to the addition of compound. […] After six days in culture, the cells are fixed by the addition of cold trichloroacetic acid to a final concentration of 10% and protein levels are measured using the sulforhodamine B (SRB) colorimetric protein stain assay as previously described by Skehan, P., Storeng, R., Scudiero, D., Monks, A., McMahon, J., Vistica, D., Warren, J. T., Bokesch, H., Kenney, S., and Boyd, M. R., “New Colorimetric Assay For Anticancer-Drug Screening,” J. Natl. Cancer Inst. […]
(§2) To show the effectiveness of this screening method on various forms of neoplasia, compounds were tested on numerous cell lines. […] The IC50 values were determined by the SRB assay. […]
Background: Sulforhodamine B stains cellular protein and so reports cell mass.

The subject of a further assay is UACC375, Melanoma. The assay can be described thus: Growth inhibition, SRB assay, UACC375. The format is cell-based.
Text: as §1, §2

A further assay has as its system A-427, Lung. The assay can be described thus: Growth inhibition, SRB assay, A-427. It is filed as cell-based.
Text: as §1, §2

The subject of assay [7] is Bronchial Epithelial Cells. The assay can be described thus: Growth inhibition, SRB assay, bronchial epithelial cells. It is filed as cell-based.
Text: as §1, §2

In assay [8] the test system is premalignant lesions in mouse mammary gland organ culture. The assay can be described thus: Mammary gland organ culture model. For mammary gland organ culture: key: −: Not active; +: Slightly active; ++: Moderately active; +++: Strongly active; ++++: Highly active. It is filed as cell-based. An excerpt: Test compounds identified by the above methods can be tested for antineoplastic activity by their ability to inhibit the incidence of pre-neoplastic lesions in a mammary gland organ culture system. This mouse mammary gland organ culture technique has been successfully used by other investigators to study the effects of known antineoplastic agents such as certain NSAIDs, retinoids, tamoxifen, selenium, and certain natural products, and is useful for validation of the screening method of the present invention.
For example, female BALB/c mice can be treated with a combination of estradiol and progesterone daily, in order to prime the glands to be responsive to hormones in vitro. The animals are sacrificed, and thoracic mammary glands are excised aseptically and incubated for ten days in growth media supplemented with insulin, prolactin, hydrocortisone, and aldosterone. DMBA (7,12-dimethylbenz(a)anthracene) is added to medium to induce the formation of premalignant lesions. Fully developed glands are then deprived of prolactin, hydrocortisone, and aldosterone, resulting in the regression of the glands but not the pre-malignant lesions.
The test compound is dissolved in DMSO and added to the culture media for the duration of the culture period. At the end of the culture period, the glands are fixed in 10% formalin, stained with alum carmine, and mounted on glass slides. The incidence of forming mammary lesions is the ratio of the glands with mammary lesions to […]. The incidence of mammary lesions in test compound treated glands is compared with that of the untreated glands.
The extent of the area occupied by the mammary lesions can be quantitated by projecting an image of the gland onto a digitation pad. The area covered by the gland is traced on the pad and considered as 100% of the area. The space covered by each of the non-regressed structures is also outlined on the digitization pad and quantitated by the computer.
Mammary gland organ culture experiment were performed as previously described (Mehta and Moon, Cancer Research, 46: 5832-5835, 1986). […] The data support the hypothesis that cyclooxygenase inhibition is not necessary for the anti-neoplastic properties of desired compounds.

The target of assay [9] is T3, cGMP binding sites of the GST-cGB-PDE5 protein (Homo sapiens, UniProt O76074).
T3 construct: made in house; host or cells: E. coli BL21 (DE3)
Nature of the assay: cGMP binding assay with GST-cGB-PDE5 fusion protein. The note with it: 3H-cGMP 2 μM.

Broadly, the IC50 is the concentration needed to halve the response being measured. The term EC50 denotes the concentration giving half of the maximal effect. With “5-fluoro-2-methyl-1-(p-methylsulfinylbenzylidene)-3-indenylacetic acid [Sulindac sulfide]”, the IC50 amounted to 50 µM in assay [1]; 17 µM in [3] (read-out: IC50 for inhibition of cGMP PDE, HT-29 cell enzyme); 41 µM in assay [4]; 45 µM in the assay on HCT116, Colon; 50 µM in the assay on UACC375, Melanoma; 90 µM with A-427, Lung. In addition, 30 µM corresponded to half-maximal inhibition in [7] (IC50). The “Cyclooxygenase inhibitory activity, % Inhibition at 100 μM” value in [2] (100 μM) stood at 97%. For the same substance, the “COX Inhibition” value in assay [2] (qualitative activity profile) was “++++”. Also, the “cGMP PDE inhibitory activity, % Inhibition at 10 μM” value in assay [3] (10 μM) was 97%. Further, the “PDE Inhibition” value in [3] (qualitative activity profile) is recorded as “+++”. Further, the “effect on cAMP levels” value in assay [5] is “unaffected”. Besides, the “increase of cGMP levels” value in [5] is given as “greater than 50%”. Further, the concentration for a half-maximal effect (EC50) in assay [5] (read-out: EC50 for increase of cGMP) amounted to 7.3 µM. Moreover, the Apoptosis entry in assay [6] was “+++”. For the same substance, the “inhibition of the formation of premalignant lesions” value in [8] (mammary gland organ culture) is “inactive”. The “Mammary Gland Organ Culture” value in [8] (qualitative activity profile) is “−”. For the same substance, the “competition with cGMP in binding of GST-cGB-PDE5” value in assay [9] is reported as “do not bind to the cGMP binding sites of PDE5”.
